In PMC7307922 (Journal of Medicinal Chemistry, 2020):
Residue numbers refer to the chain shown, from its start.

Tests used:
[1] = target: T1, hFFA3 (Homo sapiens, UniProt O14843); test: biochemical; conditions: for GTPγS pEC50: hFFA3, mean of ≥3 independent experiments ± standard error; for Emax: read-out: GTPγS Emax
T1 sequence (O14843 1-346): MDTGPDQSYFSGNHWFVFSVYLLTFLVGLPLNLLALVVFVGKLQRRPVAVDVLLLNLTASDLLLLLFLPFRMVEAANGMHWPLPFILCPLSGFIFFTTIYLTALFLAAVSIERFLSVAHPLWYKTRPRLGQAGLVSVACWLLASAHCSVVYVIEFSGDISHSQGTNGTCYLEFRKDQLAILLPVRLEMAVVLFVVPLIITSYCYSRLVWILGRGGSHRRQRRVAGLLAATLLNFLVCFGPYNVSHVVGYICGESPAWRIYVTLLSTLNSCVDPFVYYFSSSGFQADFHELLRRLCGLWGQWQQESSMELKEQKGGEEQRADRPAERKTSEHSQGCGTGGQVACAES
In short: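 Membranes from doxycycline (100 ng/mL)-induced Flp-In T-REx HEK293 cells expressing FFA3 incubated with [^35S]GTPγS (50 nCi/tube) 1 h at 25 °C. Bound [^35S]GTPγS collected by filtration and counted by liquid scintillation as a measure of Gi/o activation.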

[2] = target: T2, hFFA3 R71A (Homo sapiens, UniProt O14843, R71A); test: Potency at FFA3 mutant R71A; format: cell-based
T2 sequence (O14843 1-346 R71A): T1 sequence (O14843 1-346) with R71A
Protocol: The previously published compound 1 was not affected by mutation of either R185A or R258A in the orthosteric binding site, and the compounds were therefore believed to be allosteric modulators. […] After the publication of the FFA1 crystal structure in complex with an allosteric agonist located in the TM region close to the intracellular site,[32] a homology model of hFFA3 was constructed using Modeller. […] Thus, additional docking of (R)-1 in this site were performed to find poses where Q131, but not R126, show a central role in binding. […] The narrow binding cavity around the core scaffold is in agreement with the restrained SAR observed for this series and the furan moiety pointing out of the binding cavity might explain the flexibility in substituents at this site (Figure 3c,d). Although Q131A impacts the potency of (R)-1 with high significance, the magnitude of the effect is lower than what would be generally expected for the removal of a hydrogen bond interaction; thus, additional studies are required to confirm the proposed binding site.

[3] = tested on: FFA3 R185A; set-up: method as in PMID 24870406; conditions: orthosteric binding site; cited from earlier work
[4] = tested on: FFA3 R258A; set-up: method as in PMID 24870406; conditions: orthosteric binding site; cited from earlier work
[5] = Chemical stability in DMSO (NMR); format: physicochemical
Protocol: To further ensure the suitability of 57 as a tool compound for in vitro studies, the chemical stability was also evaluated in dimethyl sulfoxide (DMSO).

[6] = target: T3, mFFA3 (Mus musculus, UniProt Q3UFD7); test: biochemical
T3 sequence (Q3UFD7 1-319): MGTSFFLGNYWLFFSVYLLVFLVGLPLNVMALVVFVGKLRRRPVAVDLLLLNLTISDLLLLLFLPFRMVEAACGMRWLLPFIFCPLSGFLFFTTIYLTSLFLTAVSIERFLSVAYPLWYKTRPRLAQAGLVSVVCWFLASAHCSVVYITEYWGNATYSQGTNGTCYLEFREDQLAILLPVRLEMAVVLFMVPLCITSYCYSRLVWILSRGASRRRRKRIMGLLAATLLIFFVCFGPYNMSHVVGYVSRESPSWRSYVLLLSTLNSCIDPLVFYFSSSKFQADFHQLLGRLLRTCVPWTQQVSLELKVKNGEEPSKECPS
Protocol: Reactions were initiated with the addition of [^35S]GTPγS at 50 nCi per tube; reactions were terminated after 1 h of incubation at 25 °C by rapid filtration through GF/C glass filters using a 24-well Brandel cell harvester (Alpha Biotech, Glasgow, UK). Unbound radioligand was removed from filters by washing three times with ice-cold wash buffer (50 mM Tris–HCl, pH 7.4, and 10 mM MgCl2), and [^35S]GTPγS binding was determined by liquid scintillation spectrometry.

[7] = tested on: cells dissociated from mouse dorsal root ganglia; test: Intracellular calcium in dorsal root ganglion cells of wild-type and FFA3 KO mice; format: cell-based; conditions: 5 μM; DRG cells of wild type vs FFA3 KO mice
Protocol: Colonic innervating DRGs were isolated from the T9-L2 region of the spinal cord of C57/BL6 mice and from FFA3 knock-out animals and immediately placed in cold Hanks’ balanced salt solution (HBSS; Sigma-Aldrich). Isolated DRGs were initially digested with HBSS containing L-cysteine (0.3 mg/mL) and papain (2.0 mg/mL) for 20 min at 37 °C. The solution was removed and replaced with HBSS contain collagenase (4.0 mg/mL) and dispase (4.0 mg/mL) (20 min at 37 °C) for further digestion. The collagenase solution was then replaced with DMEM to stop the reaction. The DRGs were finally dissociated by mechanical trituration using a pipette. Dissociated cells were plated on matrigel-coated coverslips and placed in an incubator (37 °C and 5% CO2). Following a 2 h incubation, cells were flooded with 90% DMEM (Sigma) supplemented with 10% fetal calf serum and 1% PenStrep and further incubated overnight at 37 °C and 5% CO2.
To measure intracellular calcium and its potential regulation, dissociated cells on the coverslips were loaded with Fura 8-AM (3 μM) (Stratech Scientific Limited) for 20 min at 37 °C in the dark. […]

In the case of `CC1=C(C(=O)Nc2ccccc2C)C(c2ccco2)C2=C(CCCC2=O)N1` (stereo not shown) [Compound 1, 4-(Furan-2-yl)-2-methyl-5-oxo-N-(o-tolyl)-1,4,5,6,7,8-hexahydroquinoline-3-carboxamide, reference compound], the “higher potency than 3-furyl derivative 2” value ([1]; GTPγS assay) is reported as “approximately 2 fold”, the “GTPγS pEC50” value [1] is reported as 5.65 ± 0.07 and the Emax [1] is reported as 100%. The “effect of mutation R71A on potency” value [2] was “did not affect”, the “effect of mutation R185A” value [3] was “not affected” and the “effect of mutation R258A” value [4] was “not affected”.

In the case of `CCCC1C(C(=O)Nc2cc(Cl)ccc2Cl)=C(C)NC2=C1C(=O)CCC2` (stereo not shown) [Compound 57, N-(2,5-Dichlorophenyl)-2-methyl-5-oxo-4-propyl-1,4,5,6,7,8-hexahydroquinoline-3-carboxamide], the “chemical stability in DMSO” value ([5]; 4 °C, after 1 and 30 days, NMR) is reported as “complete stability”, the “chemical stability in DMSO” value ([5]; rt, not protected from light, 7 days) is reported as “fully stable” and the “chemical stability in DMSO” value ([5]; rt, not protected from light, 30 days) is reported as “minor decomposition”. The EC50 [6] was 2000 nM and the “elevation of intracellular calcium levels” value [7] was “large elevation in intracellular calcium levels in wild type but not FFA3 KO cells”.

In the case of `CC1=C(C(=O)Nc2cc(Cl)ccc2Cl)C(c2ccco2)C2=C(CCCC2=O)N1` (stereo not shown) [Compound 16, reference compound], the “GTPγS pEC50” value [1] is reported as 5.74 ± 0.11 and the Emax [1] is reported as 120%.
